Species on record: Rattus norvegicus
Experiment: DrugMatrix - Regimen: Daily Repeat
Assay type: toxicity, organism-based, Sprague-Dawley
Parameters: regimen Daily Repeat, gender Male, age 6-8 weeks
Details: in vivo, po, route oral GAVAGE, vehicle 100 % WATER; for ABSOLUTE BASOPHIL / ABSOLUTE EOSINOPHIL / ABSOLUTE LYMPHOCYTE / ABSOLUTE MONOCYTE / ABSOLUTE SEGMENTED NEUTROPHIL / BASOPHIL / EOSINOPHIL / ERYTHROCYTE COUNT / HEMATOCRIT / HEMOGLOBIN / LEUKOCYTE COUNT / LYMPHOCYTE / MEAN CORPUSCULAR HEMOGLOBIN / MEAN CORPUSCULAR HEMOGLOBIN CONCENTRATION / MEAN CORPUSCULAR VOLUME / MONOCYTE / NEUTROPHIL / NUCLEATED RED BLOOD CELLS / PLATELET COUNT: tissue Blood; for ALANINE AMINOTRANSFERASE / ALBUMIN / ALKALINE PHOSPHATASE / ASPARTATE AMINOTRANSFERASE / BLOOD UREA NITROGEN / CARBON DIOXIDE / CHLORIDE / CHOLESTEROL / CREATINE PHOSPHOKINASE / CREATININE / GLUCOSE / LACTATE DEHYDROGENASE / LIPASE / PHOSPHORUS / POTASSIUM / SODIUM / TOTAL BILIRUBIN / TOTAL PROTEIN / URIC ACID: tissue Plasma
[1] = 0 mg/kg, 72 h, dose level Control, time 3 day
[2] = 0 mg/kg, 120 h, dose level Control, time 5 day
[3] = 33 mg/kg, 72 h, dose level Low, time 3 day
[4] = 33 mg/kg, 120 h, dose level Low, time 5 day

C1CCN2C[C@@H]3C[C@@H](CN4CCCC[C@@H]34)[C@H]2C1 [SPARTEINE]
ABSOLUTE BASOPHIL [1]: 0 CELLS/uL
ABSOLUTE EOSINOPHIL [1]: 86.33 CELLS/uL
ABSOLUTE LYMPHOCYTE [1]: 12090.17 CELLS/uL
ABSOLUTE MONOCYTE [1]: 166.67 CELLS/uL
ABSOLUTE SEGMENTED NEUTROPHIL [1]: 1090.17 CELLS/uL
BASOPHIL [1]: 0%
EOSINOPHIL [1]: 0.67%
ERYTHROCYTE COUNT [1]: 5.57 x10E6/uL
HEMATOCRIT [1]: 35.33%
HEMOGLOBIN [1]: 13.83 G/DL
LEUKOCYTE COUNT [1]: 13.43 x10E3/uL
LYMPHOCYTE [1]: 89.83%
MEAN CORPUSCULAR HEMOGLOBIN [1]: 24.88 pg
MEAN CORPUSCULAR HEMOGLOBIN CONCENTRATION [1]: 39.15 G/DL
MEAN CORPUSCULAR VOLUME [1]: 63.52 fL
MONOCYTE [1]: 1.17%
NEUTROPHIL [1]: 8.33%
NUCLEATED RED BLOOD CELLS [1]: 0 /100WBC
PLATELET COUNT [1]: 1181.33 x10E3/uL
ALANINE AMINOTRANSFERASE [1]: 48.33 u/L
ALBUMIN [1]: 4.1 G/DL
ALKALINE PHOSPHATASE [1]: 395 u/L
ASPARTATE AMINOTRANSFERASE [1]: 81.83 u/L
BLOOD UREA NITROGEN [1]: 15.83 mg/dL
CARBON DIOXIDE [1]: 24.17 mmol/L
CHLORIDE [1]: 103.83 MEQ/L
CHOLESTEROL [1]: 63.67 mg/dL
CREATINE PHOSPHOKINASE [1]: 372.83 u/L
CREATININE [1]: 0.18 mg/dL
GLUCOSE [1]: 173.83 mg/dL
LACTATE DEHYDROGENASE [1]: 188.33 u/L
LIPASE [1]: 9.5 u/L
PHOSPHORUS [1]: 11.95 mg/dL
POTASSIUM [1]: 5.99 MEQ/L
SODIUM [1]: 144.43 MEQ/L
TOTAL BILIRUBIN [1]: 0.15 mg/dL
TOTAL PROTEIN [1]: 5.95 G/DL
URIC ACID [1]: 1.82 mg/dL
ABSOLUTE BASOPHIL [2]: 0 CELLS/uL
ABSOLUTE EOSINOPHIL [2]: 26.67 CELLS/uL
ABSOLUTE LYMPHOCYTE [2]: 7583.83 CELLS/uL
ABSOLUTE MONOCYTE [2]: 131.33 CELLS/uL
ABSOLUTE SEGMENTED NEUTROPHIL [2]: 674.83 CELLS/uL
BASOPHIL [2]: 0%
EOSINOPHIL [2]: 0.33%
ERYTHROCYTE COUNT [2]: 5.78 x10E6/uL
HEMATOCRIT [2]: 36.48%
HEMOGLOBIN [2]: 14.03 G/DL
LEUKOCYTE COUNT [2]: 8.42 x10E3/uL
LYMPHOCYTE [2]: 89.83%
MEAN CORPUSCULAR HEMOGLOBIN [2]: 24.3 pg
MEAN CORPUSCULAR HEMOGLOBIN CONCENTRATION [2]: 38.52 G/DL
MEAN CORPUSCULAR VOLUME [2]: 63.15 fL
MONOCYTE [2]: 1.67%
NEUTROPHIL [2]: 8.17%
NUCLEATED RED BLOOD CELLS [2]: 0 /100WBC
PLATELET COUNT [2]: 1186.67 x10E3/uL
ALANINE AMINOTRANSFERASE [2]: 50.17 u/L
ALBUMIN [2]: 4.07 G/DL
ALKALINE PHOSPHATASE [2]: 367.5 u/L
ASPARTATE AMINOTRANSFERASE [2]: 81.67 u/L
BLOOD UREA NITROGEN [2]: 16.17 mg/dL
CARBON DIOXIDE [2]: 32.33 mmol/L
CHLORIDE [2]: 101.5 MEQ/L
CHOLESTEROL [2]: 65.33 mg/dL
CREATINE PHOSPHOKINASE [2]: 255.33 u/L
CREATININE [2]: 0.17 mg/dL
GLUCOSE [2]: 139.33 mg/dL
LACTATE DEHYDROGENASE [2]: 95 u/L
LIPASE [2]: 10.5 u/L
PHOSPHORUS [2]: 10.38 mg/dL
POTASSIUM [2]: 6.11 MEQ/L
SODIUM [2]: 145.55 MEQ/L
TOTAL BILIRUBIN [2]: 0.17 mg/dL
TOTAL PROTEIN [2]: 5.98 G/DL
URIC ACID [2]: 0.93 mg/dL
ABSOLUTE BASOPHIL [3]: 0 CELLS/uL
ABSOLUTE EOSINOPHIL [3]: 58.33 CELLS/uL
ABSOLUTE LYMPHOCYTE [3]: 13527.67 CELLS/uL
ABSOLUTE MONOCYTE [3]: 237.33 CELLS/uL
ABSOLUTE SEGMENTED NEUTROPHIL [3]: 1176.67 CELLS/uL
BASOPHIL [3]: 0%
EOSINOPHIL [3]: 0.33%
ERYTHROCYTE COUNT [3]: 5.67 x10E6/uL
HEMATOCRIT [3]: 36.13%
HEMOGLOBIN [3]: 14 G/DL
LEUKOCYTE COUNT [3]: 15 x10E3/uL
LYMPHOCYTE [3]: 90%
MEAN CORPUSCULAR HEMOGLOBIN [3]: 24.8 pg
MEAN CORPUSCULAR HEMOGLOBIN CONCENTRATION [3]: 38.83 G/DL
MEAN CORPUSCULAR VOLUME [3]: 63.9 fL
MONOCYTE [3]: 1.67%
NEUTROPHIL [3]: 8%
NUCLEATED RED BLOOD CELLS [3]: 0.33 /100WBC
PLATELET COUNT [3]: 1335 x10E3/uL
ALANINE AMINOTRANSFERASE [3]: 50.67 u/L
ALBUMIN [3]: 3.9 G/DL
ALKALINE PHOSPHATASE [3]: 377.67 u/L
ASPARTATE AMINOTRANSFERASE [3]: 91 u/L
BLOOD UREA NITROGEN [3]: 15 mg/dL
CARBON DIOXIDE [3]: 25.67 mmol/L
CHLORIDE [3]: 102 MEQ/L
CHOLESTEROL [3]: 61.33 mg/dL
CREATINE PHOSPHOKINASE [3]: 251.67 u/L
CREATININE [3]: 0.12 mg/dL
GLUCOSE [3]: 152 mg/dL
LACTATE DEHYDROGENASE [3]: 249 u/L
LIPASE [3]: 9 u/L
PHOSPHORUS [3]: 13.2 mg/dL
POTASSIUM [3]: 6.44 MEQ/L
SODIUM [3]: 143.4 MEQ/L
TOTAL BILIRUBIN [3]: 0.13 mg/dL
TOTAL PROTEIN [3]: 5.73 G/DL
URIC ACID [3]: 1.43 mg/dL
ABSOLUTE BASOPHIL [4]: 0 CELLS/uL
ABSOLUTE EOSINOPHIL [4]: 62 CELLS/uL
ABSOLUTE LYMPHOCYTE [4]: 7311 CELLS/uL
ABSOLUTE MONOCYTE [4]: 83 CELLS/uL
ABSOLUTE SEGMENTED NEUTROPHIL [4]: 677.33 CELLS/uL
BASOPHIL [4]: 0%
EOSINOPHIL [4]: 0.67%
ERYTHROCYTE COUNT [4]: 5.58 x10E6/uL
HEMATOCRIT [4]: 34.4%
HEMOGLOBIN [4]: 13.3 G/DL
LEUKOCYTE COUNT [4]: 8.13 x10E3/uL
LYMPHOCYTE [4]: 90.33%
MEAN CORPUSCULAR HEMOGLOBIN [4]: 23.87 pg
MEAN CORPUSCULAR HEMOGLOBIN CONCENTRATION [4]: 38.67 G/DL
MEAN CORPUSCULAR VOLUME [4]: 61.8 fL
MONOCYTE [4]: 1%
NEUTROPHIL [4]: 8%
NUCLEATED RED BLOOD CELLS [4]: 0 /100WBC
PLATELET COUNT [4]: 1046.67 x10E3/uL
ALANINE AMINOTRANSFERASE [4]: 55.33 u/L
ALBUMIN [4]: 3.93 G/DL
ALKALINE PHOSPHATASE [4]: 372 u/L
ASPARTATE AMINOTRANSFERASE [4]: 82.67 u/L
BLOOD UREA NITROGEN [4]: 16.33 mg/dL
CARBON DIOXIDE [4]: 31.67 mmol/L
CHLORIDE [4]: 102.33 MEQ/L
CHOLESTEROL [4]: 65.33 mg/dL
CREATINE PHOSPHOKINASE [4]: 351.67 u/L
CREATININE [4]: 0.16 mg/dL
GLUCOSE [4]: 143.67 mg/dL
LACTATE DEHYDROGENASE [4]: 104.67 u/L
LIPASE [4]: 10 u/L
PHOSPHORUS [4]: 10.67 mg/dL
POTASSIUM [4]: 5.96 MEQ/L
SODIUM [4]: 145.73 MEQ/L
TOTAL BILIRUBIN [4]: 0.13 mg/dL
TOTAL PROTEIN [4]: 5.97 G/DL
URIC ACID [4]: 0.63 mg/dL
